The source made the active and inactive calls.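 Rule for the calls: active = Compounds that kill half the cells at a concentration of 5 micromolar or below, from the fitted or estimated CC50; inactive = CC50 above 5 micromolar.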

In this assay the test system is Jurkat E6.1 viability, ATP luminescence, 48 h. Nature of the assay: viability loss in Jurkat T cells – cell-based, ATP luminescence, 48 h, 60K MLSMR, cytotoxicity control, dose response (AID 464).
For `CCOC(=O)C(C(C)=O)c1c(Br)c(O)c(O)c2c(C(=O)c3ccc(C)cc3)coc12` (stereo not drawn), the CC50 is 6.14 µM (inactive).

As for `O=C(CSC1=NCCS1)Nc1ccnc2ccccc12`, the CC50 is > 40 µM (inactive).

Regarding `CCn1ncc(C2=NOC(C(=O)NCc3ccccc3)C2)c1C` (stereo not drawn), the CC50 is 1.09 µM.

On to `CCOC(=O)C1CCN(Cc2ccc(O)c3ncccc23)CC1`, for which the CC50 was 9.85 µM (inactive).

With `COc1cc(C2CC(=O)c3c([nH]c(C(=O)OCCOC(C)C)c3C)C2)cc(OC)c1OC` (stereo not drawn), the CC50 was 6.55 µM (inactive).

`Cc1ccc2c(CC(=O)NCc3ccco3)coc2c1C`: the CC50 was 7.99 µM (inactive).

With `N#Cc1c(NCc2ccccc2)ccnc1NCc1cccnc1`, the CC50 is 4.17 µM.

As to `Cc1sc(NC(=O)c2ccco2)c(C(c2cccnc2)N2CCN(c3ccc(F)cc3)CC2)c1C` (stereo not drawn), the CC50 was > 40 µM (inactive).

Take `CS(=O)(=O)N1CCc2cc(-c3csc(NC(=O)Cc4cccs4)n3)ccc21`: the CC50 is 19.1 µM (inactive).

Take `CCC(=O)Nc1nc2ccccc2n1Cc1ccc(C)cc1`: the CC50 was > 40 µM (inactive).

For the molecule `Cc1cc(NC(=O)CCCS(=O)(=O)c2nc(-c3cccs3)cc(C(F)(F)F)n2)no1`, the half-maximal cytotoxic concentration (CC50) is 2 µM.

`CCOC(=O)C1(Nc2nccs2)Sc2ccccc2NC1=O` (stereo not drawn): the 50% cytotoxic concentration (CC50) is 3.66 µM.

For `O=C(Nc1nc(-c2ccccc2)cs1)C1CCCN(S(=O)(=O)c2ccccc2)C1` (stereo not drawn), the CC50 was 20.9 µM (inactive).

Take `COc1cc(CSc2nnnn2-c2ccc(C)cc2)cc(OC)c1OC`: the CC50 is 2.38 µM.

On to `O=C(Nc1ccc(N2CCCCC2)c(Cl)c1)c1cccnc1`, for which the CC50 is > 40 µM (inactive).

On to `Cn1cc(C(=O)c2ccc(Cl)cc2)cc1-c1nc2ccccc2n1C`, for which the CC50 is 23.3 µM (inactive).

Regarding `CCOC(=O)c1[nH]c(C)c(C(=O)Nc2cccc(Cl)c2C)c1C`, the cytotoxic concentration (CC50) was 3.8 µM.

Turning to `CCOc1cccc(-n2nnnc2-c2ccc(OC)cc2)c1`, the CC50 is 1.06 µM.

Regarding `Cc1nn(Cc2c(Cl)cccc2Cl)c(C)c1NC(=O)c1cc(C(C)C)on1`, the CC50 is > 40 µM (inactive).

With `CCOc1ccc(-c2cc(CCCC(=O)Nc3cccc(OC)c3)no2)cc1`, the 50% cytotoxic concentration (CC50) was 0.809 µM.

On to `Cc1ccc(-c2csc3ncnc(Sc4nnc(CN5CCCCCC5=O)o4)c23)cc1`, for which the CC50 is 5.28 µM (inactive).

For the molecule `O=C(c1cc2c(s1)-c1ccccc1OC2)N1CCC2(CC1)OCCO2`, the CC50 is 6.1 µM (inactive).

Turning to `C/C(N)=C(/C#N)C(=O)CSc1nnnn1-c1ccc(C)cc1C`, the CC50 is > 40 µM (inactive).

Take `CN(C)CC(C(=O)c1ccccc1)c1ccccc1` (stereo not drawn): the CC50 was 3.91 µM.

For the molecule `COc1cc2c(O)c3c(c(-c4ccc5c(c4)OCO5)c2cc1OC)C(=O)OC3`, the CC50 is 5.28 µM (inactive).

Consider `Oc1c(CN2CCCCC2)cc(Br)c2cccnc12`, for which the CC50 was 3.79 µM.

Regarding `O=C(NCc1cccs1)c1nc2c(nnn2Cc2ccccc2Cl)c(=O)[nH]1`, the CC50 is 14.8 µM (inactive).

As for `Cc1nc(NC(C)c2ccccc2)c2oc3ccccc3c2n1` (stereo not drawn), the CC50 was 18.6 µM (inactive).

With `Cc1onc(-c2ccccc2)c1C(=O)Nc1cc(C(F)(F)F)ccc1N1CCOCC1`, the CC50 was 2.15 µM.

In the case of `O=C(Nc1ccc2c(c1)nc1n2CCCCC1)c1cc(S(=O)(=O)N2CCOCC2)ccc1Cl`, the CC50 is 21.1 µM (inactive).

For the molecule `CCOC(=O)N1CCN(c2c(F)cc3[nH]c(=S)[nH]c3c2Br)CC1`, the CC50 is > 4.4 µM (inactive).

For the molecule `Cn1ncc2c(Nc3ccc(-c4ccccc4)cc3)ncnc21`, the CC50 is > 40 µM (inactive).

Take `Clc1ccc(OCCN2CCN(c3ncnc4sccc34)CC2)cc1`: the CC50 was 0.938 µM.

As to `CCOc1ccccc1C(=O)N1CCN(c2cccc(Cl)c2)CC1`, the CC50 was 0.095 µM.

Regarding `C=CCNc1nc2c(c(=O)n(C)c(=O)n2C)n1CCCCCC`, the 50% cytotoxic concentration (CC50) was 2.76 µM.

Regarding `CSCc1nnc(NC(=O)c2ccc(S(=O)(=O)N(CC(C)C)CC(C)C)cc2)o1`, the CC50 was 21.1 µM (inactive).

As for `COC(=O)c1ccc(Oc2cc(C)nc(-n3nc(C)cc3C)n2)cc1`, the CC50 was 0.112 µM.

Turning to `Cc1ccc(Cl)cc1N1CCN(C(=O)C2CCN(c3nnc(-n4cccc4)s3)CC2)CC1`, the CC50 is > 40 µM (inactive).

In the case of `Cn1cc(/C=N/n2cnc3scc(-c4ccc(Cl)cc4)c3c2=O)c2ccccc21`, the CC50 is 0.373 µM.

Take `Cc1c(C(=O)OCC2CCCO2)[nH]c2c1C(=O)CC(c1ccco1)C2` (stereo not drawn): the 50% cytotoxic concentration (CC50) was 2.6 µM.

Regarding `CCOc1cc(C(=O)N2CCc3cc(OC)c(OC)cc3C2)ccc1OC(F)F`, the CC50 was 0.366 µM.

With `c1ccc(/N=C2\N=C(Nc3ccccn3)c3ccccc32)nc1`, the CC50 was 1.12 µM.

As for `COc1cc(NS(=O)(=O)c2ccc(C)cc2)c2ncccc2c1`, the CC50 is 10.1 µM (inactive).

As for `CN(CC1CCCO1)S(=O)(=O)c1ccc(C(=O)Nc2nc(-c3ccccn3)cs2)cc1` (stereo not drawn), the CC50 was 10.5 µM (inactive).

As to `O=C(C1CCN(S(=O)(=O)c2cccc3cccnc23)CC1)N1CCN(c2ccc(Cl)cc2)CC1`, the CC50 was 19.5 µM (inactive).

Regarding `O=C1CN=C(c2cccs2)c2c(sc3c2CCCC3)N1`, the CC50 was 7.46 µM (inactive).

Take `CCN1CCN(c2ncc3c(n2)CC(c2cc(OC)c(OC)c(OC)c2)CC3=O)CC1` (stereo not drawn): the 50% cytotoxic concentration (CC50) was 2.26 µM.

Take `COc1ccc(OC)c(NS(=O)(=O)c2ccc(SC)cc2)c1`: the cytotoxic concentration (CC50) was 3.29 µM.

As to `Cc1cc(NC(=O)CSc2nnc3c(C)cc4c(C)ccc(C)c4n23)no1`, the cytotoxic concentration (CC50) was 3.83 µM.

Turning to `C=CCN1C(=Nc2cccnc2)SCC1(O)c1ccc(C)cc1` (stereo not drawn), the CC50 was 17.9 µM (inactive).

Consider `Cc1c(C(=O)N2CCCCC2)oc2ccc(S(=O)(=O)N3CC(C)CC(C)C3)cc12` (stereo not drawn), for which the CC50 is 15.9 µM (inactive).

`COc1ccccc1N1CCN(C(=O)c2c(-c3ccccc3)noc2C)CC1`: the CC50 is 2.92 µM.

For the molecule `Cc1oc(-c2ccccc2Cl)nc1CSCC(=O)N1CCCC1`, the CC50 is > 40 µM (inactive).

For the molecule `COc1ccc(CC(=O)Nc2cccc(-c3nnc(-c4ccccc4)o3)c2)cc1OC`, the CC50 was 15.8 µM (inactive).

Regarding `O=C(c1ccccc1-c1ccccc1)N1CCN(c2ccccn2)CC1`, the CC50 is 1.55 µM.

As for `Oc1c(CN2CCOCC2)cc(COCc2ccccc2)c2cccnc12`, the CC50 is 2.65 µM.

On to `CC(=O)c1cc2c(cc1NS(=O)(=O)c1ccc(C)cc1)OCCO2`, for which the CC50 was 5.05 µM (inactive).

For `C=CCn1c(O)c(C(C)=NCc2cc(OC)cc(OC)c2)c(=O)[nH]c1=O`, the CC50 is 7.66 µM (inactive).

As a reminder, the CC50 is the concentration that lowers cell viability or growth by half.
